# Results reported in patent US9695155B2, “Herbicidal substituted pyrimidinyloxy benzene compounds” (E. I. DU PONT DE NEMOURS AND COMPANY, priority 2013, dated 2017).
# Experiments:
# velvetleaf [1] = assay: Test A preemergence; format: in vivo, Abutilon theophrasti; details: for pest or weed control at 125 g/ha / pest or weed control at 500 g/ha: Abutilon theophrasti, pre-emergence, 240 h, read-out: Velvetleaf plant response rating
# In short: (§1)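 Scoring: eye-based comparison with untreated controls, 0 for no effect through 100 for complete control, at about day 10. Treatments: directed soil spray preemergence; foliar spray postemergence on 2–10 cm plants at the one- to two-leaf stage. Medium: loam soil with sand.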
# barnyardgrass = assay: Test A postemergence; format: in vivo, Echinochloa crus-galli; details: for pest or weed control at 125 g/ha / pest or weed control at 500 g/ha: Echinochloa crus-galli, post-emergence, 240 h; for pest or weed control at 125 g/ha: read-out: Plant response rating, Barnyardgrass; for pest or weed control at 500 g/ha: read-out: Plant response rating Barnyardgrass
# In short: as §1
# sedge, umbrella = assay: Test B flooded paddy test; format: in vivo, Cyperus difformis; details: Flood, 250 g ai/ha, 0 to 100 scale where 0 is no effect and 100 is complete control; for pest or weed control at 250 g/ha: Cyperus difformis, read-out: Plant response rating, Sedge, Umbrella
# In short: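 Plants were grown to the 2-leaf stage, then pots were flooded to 3 cm above the soil and compounds were applied directly into the paddy water. That depth was held throughout, and after 13 to 15 days in the greenhouse injury was rated visually against controls on a 0–100 scale (0 no effect, 100 complete control).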
# johnsongrass = assay: Test C preemergence; format: in vivo, Sorghum halepense; details: Sorghum halepense, pre-emergence
# From the text: (§2) Seeds of plant species selected from blackgrass (Alopecurus myosuroides), Italian ryegrass (Lolium multiflorum), wheat, winter (winter wheat, Triticum aestivum), galium (catchweed bedstraw, Galium aparine), corn (Zea mays), large (Lg) crabgrass (Digitaria sanguinalis), giant foxtail (Setaria faberii), johnsongrass (Sorghum halepense), lambsquarters (Chenopodium album), morningglory (Ipomoea coccinea), yellow nutsedge (Cyperus esculentus), pigweed (Amaranthus retroflexus), ragweed (common ragweed, Ambrosia elatior), soybean (Glycine max), barnyardgrass (Echinochloa crus-galli), oilseed rape (Brassica napus), waterhemp (common waterhemp, Amaranthus rudis), kochia (Kochia scoparia), wild oat (Avena fatua), surinam grass (Brachiaria decumbens), foxtail, green (green foxtail, Setaria viridis), goosegrass (Eleusine indica), bromegrass, downy (downy bromegrass, Bromus tectorum), nightshade (eastern black nightshade, Solanum ptycanthum), cocklebur (common cocklebur, Xanthium strumarium), cupgrass, woolly (woolly cupgrass, Eriochloa villosa), bermudagrass (Cynodon dactylon), sunflower, (common oilseed sunflower, Helianthus annuus), Russian thistle (Salsola kali), and velvetleaf (Abutilon theophrasti) were planted into a blend of loam soil and sand and treated preemergence with test chemicals formulated in a non-phytotoxic solvent mixture which included a surfactant.
# (§3) At the same time, plants selected from these crop and weed species and also barley, winter (winter barley, Hordeum vulgare), windgrass (Apera spica-venti), chickweed (common chickweed, Stellaria media), deadnettle (henbit deadnettle, Lamium amplexicaule), and canarygrass (littleseed canarygrass, Phalaris minor) were planted in pots containing Redi-Earth® planting medium (Scotts Company, 14111 Scottslawn Road, Marysville, Ohio 43041) comprising spaghnum peat moss, vermiculite, wetting agent and starter nutrients and treated with postemergence applications of test chemicals formulated in the same manner. Plants ranged in height from 2 to 18 cm (1- to 4-leaf stage) for postemergence treatments. Treated plants and controls were maintained in a greenhouse for 13 to 15 days, after which time all species were compared to controls and visually evaluated. Plant response ratings, summarized in Table C, are based on a scale of 0 to 100 where 0 is no effect and 100 is complete control. A dash (-) response means no test result.
# soybean = assay: Test C preemergence; format: in vivo, Glycine max; details: Glycine max, pre-emergence
# From the text: as §2, §3
# velvetleaf [2] = assay: Test C postemergence; format: in vivo, Abutilon theophrasti; details: Abutilon theophrasti, post-emergence
# From the text: as §2, §3
# chickweed = assay: Test C postemergence; format: in vivo, Stellaria media; details: Stellaria media, post-emergence
# From the text: as §2, §3
# [3] = 125 g ai/ha, 0 to 100 scale where 0 is no effect and 100 is complete control
# [4] = 500 g ai/ha, 0 to 100 scale, 0 no effect, 100 complete control, approx. 10 days
# [5] = 500 g ai/ha, 0 to 100 scale, 0 no effect, 100 complete control
structure (smiles),measurement,setting,value
"FC(F)(F)c1ccn(-c2ccccc2Oc2ncc(Cl)cn2)n1 [Compound 2, 5-chloro-2-[2-[3-(trifluoromethyl)-1H-pyrazol-1-yl]phenoxy]pyrimidine]",pest or weed control at 125 g/ha,velvetleaf [1]; [3],30%
same,pest or weed control at 500 g/ha,velvetleaf [1]; [4],70%
same,pest or weed control at 125 g/ha,barnyardgrass; [3],30%
same,pest or weed control at 500 g/ha,barnyardgrass; [5],70%
same,pest or weed control at 250 g/ha,"sedge, umbrella",0%
Clc1cnc(Oc2ccccc2-n2cc(Cl)cn2)nc1 [Compound 3],Velvetleaf plant response rating,velvetleaf [1]; [3],70
same,Velvetleaf plant response rating,velvetleaf [1]; [4],90
same,"Plant response rating, Barnyardgrass",barnyardgrass; [3],10
same,"Plant response rating, Barnyardgrass",barnyardgrass; [5],90
same,"Plant response rating, Sedge, Umbrella","sedge, umbrella",75
"Clc1cnc(Oc2ccccc2-n2cc(Br)cn2)nc1 [Compound 7, 2-[2-(4-bromo-1H-pyrazol-1-yl)phenoxy]-5-chloropyrimidine]",pest or weed control at 125 g/ha,velvetleaf [1]; [3],100%
same,pest or weed control at 500 g/ha,velvetleaf [1]; [4],100%
same,pest or weed control at 125 g/ha,barnyardgrass; [3],90%
same,pest or weed control at 500 g/ha,barnyardgrass; [5],100%
same,pest or weed control at 250 g/ha,"sedge, umbrella",75%
same,pest or weed control at 62 g/ha,"johnsongrass; 62 g ai/ha, preemergence, scale 0 (no effect) to 100 (complete control), read-out: Johnsongrass plant response rating",5%
same,pest or weed control at 125 g/ha,"johnsongrass; 125 g ai/ha, preemergence, scale 0 (no effect) to 100 (complete control), read-out: Johnsongrass plant response rating",10%
same,pest or weed control at 250 g/ha,"johnsongrass; 250 g ai/ha, preemergence, scale 0 (no effect) to 100 (complete control), read-out: Johnsongrass plant response rating",75%
same,pest or weed control at 31 g/ha,"johnsongrass; Preemergence, 31 g ai/ha, scale 0 to 100, 0 no effect, 100 complete control, read-out: Plant response rating, Johnsongrass",0%
same,plant injury at 62 g/ha,"soybean; 62 g ai/ha, preemergence, scale 0 (no effect) to 100 (complete control), read-out: Soybean plant response rating",40%
same,plant injury at 125 g/ha,"soybean; 125 g ai/ha, preemergence, scale 0 (no effect) to 100 (complete control), read-out: Soybean plant response rating",60%
same,plant injury at 250 g/ha,"soybean; 250 g ai/ha, preemergence, scale 0 (no effect) to 100 (complete control), read-out: Soybean plant response rating",98%
same,plant injury at 31 g/ha,"soybean; Preemergence, 31 g ai/ha, scale 0 to 100, 0 no effect, 100 complete control, read-out: Plant response rating, Soybean",15%
same,pest or weed control at 125 g/ha,"velvetleaf [2]; 125 g ai/ha, postemergence, read-out: Plant response rating (0 to 100), Velvetleaf",85%
same,pest or weed control at 250 g/ha,"velvetleaf [2]; 250 g ai/ha, postemergence, read-out: Plant response rating (0 to 100), Velvetleaf",85%
same,pest or weed control at 31 g/ha,"velvetleaf [2]; Postemergence, 31 g ai/ha, scale 0 to 100 (0 no effect, 100 complete control), 13 to 15 days, read-out: Plant response rating, Velvetleaf",40%
same,pest or weed control at 62 g/ha,"velvetleaf [2]; Postemergence, 62 g ai/ha, scale 0 to 100 (0 no effect, 100 complete control), read-out: Plant response rating, Velvetleaf",50%
same,pest or weed control at 125 g/ha,"chickweed; 125 g ai/ha, postemergence, read-out: Plant response rating (0 to 100), Chickweed",90%
same,pest or weed control at 250 g/ha,"chickweed; 250 g ai/ha, postemergence, read-out: Plant response rating (0 to 100), Chickweed",98%
same,pest or weed control at 31 g/ha,"chickweed; Postemergence, 31 g ai/ha, scale 0 to 100 (0 no effect, 100 complete control), 13 to 15 days, read-out: Plant response rating, Chickweed",80%
